Measurements published in PubChem BioAssay AID493102 (Broad Institute, 2011).

system: SK-MEL-5 TRPM1-promoter luciferase reporter, 24 h; assay: reducers of TRPM1 reporter luminescence, concentration series – cell-based, SK-MEL-5, cherry-picked, set 4, MITF inhibitor project, dose response (AID 493102);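 further: actives lower the luciferase signal so the potency reflects inhibition of reporter expression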

Row | SMILES | AC50 [µM]
1 | COc1ccc(N/N=C/c2c(C(=O)O)ccc3ccccc23)cc1 | 5.11
2 | CN1C(=O)/C(=C/c2cccn2-c2ccc3ccccc3c2)C(=O)NC1=S | 9.42
3 | Cc1cccc(NC(=O)CNC(=O)Cn2ncc(Cl)c(Cl)c2=O)c1C | 13.4
4 | COc1ccc2nc(C)cc(SCC(=O)N/N=C/c3ccc(O)cc3O)c2c1 | 10.1
5 | CC1CCCC(NC(=O)NC(=O)CCl)C1C (stereo unspecified) | 12.4
6 | CCCNC(=O)COC(=O)c1ccccc1C(=O)c1ccc(Cl)c([N+](=O)[O-])c1 | 8.34
7 | CN(C)C1CCN(Cc2cc(COCc3ccccc3)c3cccnc3c2O)C1 (stereo unspecified) | 9.99
8 | CCOc1ccc2nc(C)cc(Nc3cccc([N+](=O)[O-])c3)c2c1 | 17.8
9 | CC(=O)N(C)C1=C(N2CCOCC2)C(=O)c2ccccc2C1=O | 3.5
10 | O=C(O)c1ccccc1C(=O)Nc1ccc(Oc2cccc3ccccc23)cc1 | 18.8
11 | O=C(Cc1ccccc1)NCC(=O)N/N=C/c1ccc([N+](=O)[O-])s1 | 16.1
12 | CC1CC(C)CN(C(=O)/C=C/c2ccc([N+](=O)[O-])s2)C1 (stereo unspecified) | 11.9
13 | Cc1ccc(C(=O)C[n+]2cc(-c3ccc(C)cc3)n3c2CCCCC3)cc1 | 3.63
14 | COc1ccc(S(=O)(=O)Nc2ccc(O)c3ccccc23)cc1 | 9.07
15 | CCOC(=O)c1cc([N+](=O)[O-])c([N+](=O)[O-])cc1NC(C)=O | 24.2
16 | Cc1cc(C(=O)CSc2nnc3ccccn23)c(C)n1-c1ccccc1 | 2.08
17 | COc1cccc(NC(=O)c2cc3c(=O)n4ccccc4nc3n(CC(C)C)c2=N)c1 | 7.02
18 | COC(=O)c1ccc(-n2c(C)cc(C(=O)CCl)c2C)cc1 | 7.46
19 | CC(Oc1ccccc1)C(=O)Nc1nc(-c2ccccn2)cs1 (stereo unspecified) | 14.1
20 | Cn1nnnc1Sc1ncnc2scc(-c3ccsc3)c12 | 7.95
21 | CC[n+]1c(/C=C/N(C)c2ccccc2)sc2ccc(Cl)cc21 | 9.07
22 | CCCCN(CC)CCCNC(=O)c1cc2c(=O)n(CC)c3ccccc3c2s1 | 21.6
23 | O=C(CCl)Nc1cccc(S(=O)(=O)N2CCCCCC2)c1 | 11.8

Row | SMILES | AC50 [µM]
24 | O=C(N/N=C/c1ccccn1)c1cc([N+](=O)[O-])cc([N+](=O)[O-])c1 | 6.53
25 | CC(C)C(=O)NC(c1ccco1)c1ccc2cccnc2c1O (stereo unspecified) | 8.18
26 | Cc1ccc(-c2c[n+](Cc3ccc(Cl)cc3)c3n2CCC3)cc1 | 14.2
27 | COc1ccc(-n2c(C)cc(C(=O)CCl)c2C)cc1 | 6.44
28 | Cc1ccccc1NC(=O)Cc1nc(COC(=O)c2ccc(S(C)(=O)=O)c([N+](=O)[O-])c2)cs1 | 12.8
29 | CC(=O)Nc1ccc(S(=O)(=O)NC2=C(N3CCN(C)CC3)C(=O)c3ccccc3C2=O)cc1 | 3.65
30 | CNC(=O)COC(=O)c1ccccc1C(=O)c1ccc(Cl)c([N+](=O)[O-])c1 | 9.77
31 | O=C1c2ccccc2S(=O)(=O)N1Cc1nc2ccccc2s1 | 2.7
32 | O=C(N/N=C/c1ccc([N+](=O)[O-])s1)C(O)c1ccccc1 (stereo unspecified) | 4.48
33 | O=C(Nc1ccccc1N1CCOCC1)c1ccc([N+](=O)[O-])o1 | 11.9
34 | Cc1ccc(OCC(=O)N/N=C/c2ccc([N+](=O)[O-])o2)cc1 | 8.9
35 | Cc1cc(C=C2C(=O)c3ccccc3C2=O)c(C)n1-c1ccccc1 | 3.78
36 | C/C(=N\NC(=O)Cc1ccc(Cl)cc1)c1ccccn1 | 4.22
37 | BrC(=C\c1ccccc1)/C=N/n1cnnc1 | 7.26
38 | CC1(C)Cc2c(sc(NC(=O)c3ccc4ncsc4c3)c2C(N)=O)C(C)(C)N1 | 10.1
39 | CN(CCC#N)C(=O)COC(=O)c1ccccc1C(=O)c1ccc(Cl)c([N+](=O)[O-])c1 | 10.9
40 | Cc1cc(C(=O)N/N=C/c2ccc([N+](=O)[O-])o2)c(C)o1 | 4.79
41 | C/C(=N\NC(=O)C(c1ccccc1)c1ccccc1)c1ccccn1 | 5.96
42 | CC(C)(C)C(=O)Cn1ncc(Br)c(Br)c1=O | 3.92
43 | CC1CCC(C(C)C)C(OC(=O)Cn2c(-c3ccc(F)cc3)[n+](C)c3ccccc32)C1 (stereo unspecified) | 5.57
44 | O=C1C=C(N(CCO)Cc2ccccc2)c2ccccc2C1=O | 4.78
45 | CCOC(=O)/C=c1\s/c(=C\c2ccc3cc(OC)ccc3c2)c(=O)n1CC(=O)NCC1CCCO1 (stereo unspecified) | 5.73
46 | COc1ccc(C(=O)/C(C#N)=N/Nc2ccc([N+](=O)[O-])cc2)cc1 | 8.26

Row | SMILES | AC50 [µM]
47 | CN1C/C(=C/c2cccnc2)C(=O)/C(=C/c2cccnc2)C1 | 5.31
48 | CC(=O)Cn1ncc(Br)c(Br)c1=O | 15.8
49 | CCOc1cc(/C=C\[N+](=O)[O-])ccc1OCC(=O)N1CCOCC1 | 7.35
50 | CCOC(=O)c1c(C)oc2c(F)c(F)c(F)c(F)c2c1=O | 2.32
51 | O=C(O)c1ccc(N/N=C/c2ccc(OC(=O)c3cccc(Cl)c3)cc2)cc1 | 3.21
52 | O=[N+]([O-])c1ccc(/C=N/Nc2ccnc3cc(Cl)ccc23)o1 | 15.3
53 | CCN(CC)CCNC(=O)c1ccc(NC(=O)c2cccc(S(=O)(=O)N3c4ccccc4CC3C)c2)cc1 (stereo unspecified) | 10.5
54 | C=CCNC1=C(Cl)C(=O)c2ccccc2C1=O | 4.06
55 | Cn1cccc1-c1cc(C(=O)N/N=C/c2cc(Br)ccc2O)[nH]n1 | 5.25
56 | O=[N+]([O-])c1ccc(/C=N/n2c(CO)nc3ccccc32)s1 | 1.98
57 | CCCCn1c(=N)n(CC(=O)c2ccc(Br)s2)c2ccccc21 | 7.45
58 | CCn1c(C)cc(C(=O)CN2C(=O)c3ccccc3S2(=O)=O)c1C | 1.99
59 | CC1CCN(CC(CS(=O)(=O)c2ccc([N+](=O)[O-])cc2)N2CCC(C)CC2)CC1 (stereo unspecified) | 6.62
60 | Cc1ccc(C(C)C)c(OCc2nn(CC(=O)c3ccc(OC(F)F)cc3)c3[n+]2CCCCC3)c1 | 9.17
61 | COc1ccc(C(=O)/C=C/C(=O)N(CC(=O)NC2CCCCC2)Cc2ccc(F)cc2)c(O)c1 | 5.45
62 | Cc1ccc2nc(NC(=O)CSCC(=O)OCC(=O)c3ccccc3)sc2c1 | 5.78
63 | O=C(Nc1ccc2nc3n(c(=O)c2c1)CCCCC3)c1cc([N+](=O)[O-])ccc1F | 10.7
64 | CCCCCCn1c(=O)c(C(=O)Nc2cnccn2)c(O)c2ccccc21 | 3.68
65 | O=[N+]([O-])c1ccc(/C=N/n2cnc3ccccc32)s1 | 6.25
66 | CCN1c2ccccc2NC2C1C(C(C)=O)C(=O)N2c1ccc(Cl)cc1 (stereo unspecified) | 12.7
67 | N#CCc1ccc(NC(=O)/C=C/c2ccc([N+](=O)[O-])o2)cc1 | 4.97
68 | O=C(N/N=C/c1ccc([N+](=O)[O-])o1)c1ccccc1-n1cccc1 | 17.1
69 | O=C(CSc1ccc(Cl)cc1)NC1CCCC1 | 14.2

Row | SMILES | AC50 [µM]
70 | CC1C/C(=C\c2cccnc2)C(=O)/C(=C/c2cccnc2)C1 (stereo unspecified) | 2.66
71 | CCN1CCN(c2ccc(S(=O)(=O)N3CCOCC3)cc2NC(=O)/C=C/c2ccc([N+](=O)[O-])cc2)CC1 | 8.13
72 | CC(=O)c1c(C)oc2c1C(=O)c1ccccc1C2=O | 6.68
73 | Cc1ccc2c(c1)Oc1ccc(NC(=O)CCl)cc1C(=O)N2 | 10.1
74 | O=C(N/N=C/c1ccc([N+](=O)[O-])s1)c1cccc(Br)c1 | 4.83
75 | CN(C)c1ccc(/C=C(\C#N)c2ccccn2)cc1 | 6.32
76 | COc1ccccc1N(C(=O)CCl)c1cn(C(C)=O)c2ccccc12 | 8.82
77 | COc1ccc(NS(=O)(=O)c2cc(NC(=O)CNC(=O)c3cccc(OC)c3)ccc2C)cc1 | 11
78 | C=CCn1c(C)cc(C(=O)Cn2ncc(Cl)c(Cl)c2=O)c1C | 9.97
79 | Cc1c(CCOC(=O)c2ccc(Cl)cc2Cl)sc[n+]1CC(=O)c1ccc(Br)cc1 | 19.8
80 | Cn1cc([N+](=O)[O-])c(C(=O)Nc2cc(Oc3ccccc3)cc([N+](=O)[O-])c2)n1 | 12.4
81 | CC[n+]1c(-c2ccccc2)c2cc(N)ccc2c2ccc(N)cc21 | 2.42
82 | CC(C)=CCc1c(O)ccc2c1OC(c1ccc(O)c(O)c1)CC2=O (stereo unspecified) | 11.7
83 | COc1ccc(-c2c[n+](CC(=O)OC3CC(C)CCC3C(C)C)c3n2CCC3)cc1 (stereo unspecified) | 4.87
84 | CCOC(=O)c1c(C)oc2c1C(=O)c1ccccc1C2=O | 3.18
85 | Cc1cc(C)n(-c2ccc(C(=O)Nc3ccc(C)c(S(=O)(=O)N4CCOCC4)c3)cc2)n1 | 4.54
86 | O=C(N/N=C\c1cc(Br)ccc1O)c1ccc(S(=O)(=O)N2CCCCC2)cc1 | 1.78
87 | CC(=O)OCCCNc1cc(Sc2ccc(Cl)cc2)c2nonc2c1[N+](=O)[O-] | 10.9
88 | O=C(NCc1ccco1)c1nc2c(nnn2Cc2ccccc2Cl)c(=O)[nH]1 | 14.4
89 | CCCOCc1ccc(O)c2ncccc12 | 15.5
90 | CC1CCC(C(C)C)C(OC(=O)Cn2c(-c3ccc(Cl)cc3)[n+](C)c3ccccc32)C1 (stereo unspecified) | 6.29
91 | N=c1n(Cc2ccc(Cl)cc2)c2ccccc2n1CC(O)COc1ccccc1 (stereo unspecified) | 9.25
92 | CCc1ccc(NC2=CC(=O)C(=O)c3ccccc32)cc1 | 3.59

Row | SMILES | AC50 [µM]
93 | O=C1/C(=N\S(=O)(=O)c2cccs2)C([n+]2ccccc2)=C([O-])c2ccccc21 | 1.07
94 | O=[N+]([O-])/C=C\c1ccc(N2CCCC2)c(F)c1 | 13.4
95 | COc1ccc(/C=C2\SC(=O)N(CCCC(=O)Nc3cc(Cl)ccc3C(=O)O)C2=O)cc1 | 0.528
96 | CC(C)C(=O)N1CCN(c2ccc(NC(=O)c3ccc([N+](=O)[O-])o3)cc2)CC1 | 7.98
97 | O=C(N/N=C/c1ccccc1Cl)c1n[nH]c2c1CCCC2 | 7.97
98 | C=CCn1c(C)cc(C(=O)CN2C(=O)c3ccccc3S2(=O)=O)c1C | 0.666
99 | O=C(CCl)Nc1ccc(Sc2ccc(NC(=O)CCl)cc2)cc1 | 5.98
100 | O=C1NC(=O)N(Cc2ccccc2Cl)C(=O)/C1=C/c1cccs1 | 29.7
101 | Cc1cc(C(=O)CN2C(=O)c3ccccc3S2(=O)=O)c(C)n1-c1ccccc1 | 3.45
102 | Cc1ccc(-c2c[n+](Cc3ccc(Cl)c(Cl)c3)c3n2CCC3)cc1 | 3.73
103 | N=c1n(CC(=O)c2ccc([N+](=O)[O-])cc2)c2ccccc2n1Cc1ccccc1 | 4.83
104 | O=C(Nc1ccc(Cl)cc1)Nc1cccc(C(=O)O)c1 | 3.79
105 | O=C(COC(=O)c1ccccc1C(=O)c1ccc(Cl)c([N+](=O)[O-])c1)NC1CC1 | 8.92
106 | CCN(CC)CCCNC1=C(Cl)C(=O)c2ccccc2C1=O | 1.79
107 | CS(=O)(=O)c1ncc(Cl)c(C(=O)Nc2ccc(N3CCOCC3)cc2)n1 | 22.8
108 | CCOc1cc(/C=C(/C#N)c2ccc(Cl)cc2)cc(Cl)c1OCC(=O)O | 5.61
109 | O=C(N/N=C/c1cc(Br)ccc1O)c1ccncc1 | 9.36
110 | O=C(N/N=C/c1cccc2cccnc12)c1ccccc1O | 24.8
111 | Cc1nn(-c2ccccc2Cl)c(Cl)c1/C=N/Nc1cccc(C(=O)O)c1 | 5.5
